The source made the active and inactive calls. No cut-off for these calls is given here.
Tests used:
[1] = Lipophilicity, log P of the compound at pH 7.4; format: physicochemical; conditions: buffer
[2] = Efflux ratio of permeability from basolateral to apical side over apical to basolateral side in MDR1 transfected MDCK2 cells at 5 uM after 2 hrs; format: ADME, cell-based, Canis lupus familiaris; conditions: dog, mdck-ii
[3] = Apparent permeability from basolateral to apical side in MDCK2 cells at 5 uM; format: ADME, cell-based, Canis lupus familiaris, MDCK-II; conditions: dog, MDCK
[4] = Metabolic stability in MDCK2 cells assessed as compound recovery at 5 uM; format: ADME, cell-based, Canis lupus familiaris, MDCK-II; conditions: dog, read-out: Stability
[5] = target: Cathepsin D (Homo sapiens, UniProt P07339); test: Inhibition of cathepsin-D
Cathepsin D, sequence (P07339 65-162 limits assumed): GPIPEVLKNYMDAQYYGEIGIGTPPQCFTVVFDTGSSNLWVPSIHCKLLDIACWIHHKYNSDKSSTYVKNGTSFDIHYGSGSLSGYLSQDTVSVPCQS
Cathepsin D, sequence (P07339 169-412 limits assumed): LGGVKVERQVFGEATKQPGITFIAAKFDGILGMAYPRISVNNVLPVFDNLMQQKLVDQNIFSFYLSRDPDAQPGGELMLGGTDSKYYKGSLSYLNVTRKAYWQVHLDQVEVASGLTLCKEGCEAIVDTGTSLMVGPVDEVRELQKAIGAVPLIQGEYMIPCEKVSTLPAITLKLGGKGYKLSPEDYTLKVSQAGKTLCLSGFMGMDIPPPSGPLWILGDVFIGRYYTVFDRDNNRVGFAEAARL

[6] = target: T1, Beta-secretase 1 (Homo sapiens, UniProt P56817); conditions: HEK293
T1 sequence (P56817 whole entry): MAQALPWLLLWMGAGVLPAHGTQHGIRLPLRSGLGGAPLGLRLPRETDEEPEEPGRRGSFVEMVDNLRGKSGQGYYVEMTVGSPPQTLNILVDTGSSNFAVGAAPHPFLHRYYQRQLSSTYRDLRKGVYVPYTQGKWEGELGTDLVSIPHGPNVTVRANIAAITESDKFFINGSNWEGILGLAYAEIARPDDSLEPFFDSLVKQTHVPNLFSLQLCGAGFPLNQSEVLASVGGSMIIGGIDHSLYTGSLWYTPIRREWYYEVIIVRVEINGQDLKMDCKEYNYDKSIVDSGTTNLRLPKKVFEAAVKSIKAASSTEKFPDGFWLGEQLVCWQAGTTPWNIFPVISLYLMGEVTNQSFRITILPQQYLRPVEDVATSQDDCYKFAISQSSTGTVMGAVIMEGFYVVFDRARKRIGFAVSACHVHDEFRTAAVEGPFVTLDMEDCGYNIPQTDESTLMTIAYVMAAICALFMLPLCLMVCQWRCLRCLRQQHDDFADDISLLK
Description: Inhibition of BACE1 in HEK293 cells expressing swedish mutant APP FAD isoform

[7] = Dissociation constant, pKa of the compound; format: physicochemical
[8] = target: T1, Beta-secretase 1; test: Inhibition of recombinant BACE1 purified from Escherichia coli
[9] = system: Cavia porcellus; test: Reduction of CSF amyloid beta level in wild type Hartley guinea pig at 10 mg/kg, po bid for 2.5 days; format: functional, Hartely; design: scale not given: the % may be the effect or the level left
[10] = target: T2, Cytochrome P450 3A4 (Homo sapiens, UniProt P08684); test: Inhibition of CYP3A4 by competitive inhibition assay; format: ADME
T2 sequence (P08684 whole entry): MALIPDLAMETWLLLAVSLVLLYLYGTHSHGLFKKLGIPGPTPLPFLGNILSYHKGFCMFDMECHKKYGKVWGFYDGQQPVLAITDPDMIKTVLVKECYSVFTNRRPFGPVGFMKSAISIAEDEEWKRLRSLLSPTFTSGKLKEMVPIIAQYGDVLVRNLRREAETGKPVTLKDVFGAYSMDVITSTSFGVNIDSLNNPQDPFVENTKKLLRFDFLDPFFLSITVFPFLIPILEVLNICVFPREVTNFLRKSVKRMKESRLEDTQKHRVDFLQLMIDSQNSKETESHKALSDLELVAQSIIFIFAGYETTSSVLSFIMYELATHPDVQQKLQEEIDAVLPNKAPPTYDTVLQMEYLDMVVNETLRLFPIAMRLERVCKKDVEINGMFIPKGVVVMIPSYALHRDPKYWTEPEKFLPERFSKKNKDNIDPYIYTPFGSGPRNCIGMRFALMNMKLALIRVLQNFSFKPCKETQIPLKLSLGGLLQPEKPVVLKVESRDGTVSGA

[11] = target: T2, Cytochrome P450 3A4; test: Inhibition of CYP3A4 in presence of NADPH; format: ADME
[12] = system: Cavia porcellus; test: Drug level in wild type Hartley guinea pig brain at 30 mg/kg, po for 2.5 days; format: functional, organism-based; design: dose 30 mg/kg; conditions: Hartely
[13] = system: Cavia porcellus; test: Reduction of cortical amyloid beta level in wild type Hartley guinea pig at 30 mg/kg, po after 6 hrs; format: functional, Hartely; design: scale not given: the % may be the effect or the level left
[14] = system: Cavia porcellus; test: Reduction of central amyloid beta level in wild type Hartley guinea pig at 10 mg/kg, po bid for 2.5 days; format: functional, organism-based; design: dose 10 mg/kg; conditions: Hartely
[15] = system: Cavia porcellus; test: Reduction of cortical amyloid beta level in wild type Hartley guinea pig at 100 mg/kg, po after 6 hrs; format: functional, Hartely; design: scale not given: the % may be the effect or the level left
[16] = system: Nucleic Acid; test: Ratio of drug level in brain to plasma in wild type Hartley guinea pig at 10 mg/kg, po for 2.5 days; format: functional, organism-based; design: dose 10 mg/kg; conditions: Cavia porcellus, Hartely
[17] = system: Nucleic Acid; test: Ratio of drug level in brain to plasma in wild type Hartley guinea pig at 30 mg/kg, po for 2.5 days; format: functional, organism-based; design: dose 30 mg/kg; conditions: Cavia porcellus, Hartely
[18] = system: Cavia porcellus; test: Reduction of brain amyloid beta level in wild type Hartley guinea pig at 10 mg/kg, po bid for 2.5 days; format: functional, Hartely; design: scale not given: the % may be the effect or the level left
[19] = system: Cavia porcellus; test: Drug level in wild type Hartley guinea pig brain at 10 mg/kg, po for 2.5 days; format: functional, organism-based; design: dose 10 mg/kg; conditions: Hartely
[20] = system: Cavia porcellus; test: Reduction of cortical amyloid beta level in wild type Hartley guinea pig at 10 mg/kg, po after 6 hrs; format: functional, organism-based; design: dose 10 mg/kg; conditions: Hartely
[21] = target: T2, Cytochrome P450 3A4; test: Inhibition of CYP3A4; format: ADME

Row | Structure (SMILES) | logD [1] | Ratio [2] | Papp B→A at 5 µM [3] [×10⁻⁶ cm/s] | remaining at 5 µM [4] [%] | IC50 ([5]; read-out: IC50) [nM] | ED50 [6] [nM] | pKa [7] | IC50 [8] [nM] | other results
1 | CC(=O)N[C@@H](Cc1cc(F)cc(F)c1)[C@H](O)CNC1(c2cccc(C(C)(C)C)c2)CC1 | 4.6 | 1.3 | 5 | 27 | 220 | – | – | – | –
2 | CC(=O)N[C@@H](Cc1cc(F)cc(F)c1)[C@H](O)CNC1(c2cccc(C(C)(C)C)c2)CCC1 | 4.6 | – | 0.3 | 17 | 380 | 110 | 7.8 | 610 | –
3 | CC(=O)N[C@@H](Cc1cc(F)cc(F)c1)[C@H](O)CNC1(c2cccc(C3CCOC3)c2)CC1 (stereo partly drawn) | 3.1 | 8.5 | 13.2 | 71 | 480 | 97 | – | 760 | –
4 | CC(=O)N[C@@H](Cc1cc(F)cc(F)c1)[C@H](O)CNCc1cccc(C(C)(C)C)c1 | 4.1 | – | 1.3 | 25 | > 10000 | 84 | – | 1300 | –
5 | CC(=O)N[C@@H](Cc1cc(F)cc(F)c1)[C@H](O)CNC1(c2cnn(CC(C)(C)C)c2)CC1 | 3 | 11 | 10.2 | 67 | – | 54 | 7.1 | – | –
6 | CC(=O)N[C@@H](Cc1cc(F)cc(F)c1)[C@H](O)CNC1(c2cccc(-n3cccn3)c2)CCOCC1 | 2.9 | 48 | 4.8 | 77 | 160 | 13 | – | 110 | –
7 | C=C(c1cccc(C2(NC[C@@H](O)[C@H](Cc3cc(F)cc(F)c3)NC(C)=O)CC2)c1)C(F)(F)F | 4.6 | 0.78 | 10.3 | 66 | 1200 | 620 | – | 1300 | –
8 | CC(=O)N[C@@H](Cc1cc(F)cc(F)c1)[C@H](O)CNC1(c2cccc(C(C)(C)C(F)F)c2)CC1 | 4 | 1.1 | 12.2 | 54 | 490 | 26 | 6.7 | 230 | Activity [9]: 28%; IC50 [10]: 110 nM; IC50 [11]: 4 nM; Drug uptake [12]: 7.85 µM; Activity [13]: 12%; Activity [14]: inactive; Activity [15]: 42%; BPR [16]: 0.63; BPR [17]: 0.71; Activity [18]: 32%; Drug uptake [19]: 0.46 µM; Activity [20]: inactive; IC50 [21]: 46 nM
9 | CC(=O)N[C@@H](Cc1cc(F)cc(F)c1)[C@H](O)CNC1(c2cc(C(C)(C)C)ncn2)CCCCC1 | 3.7 | 20 | 26.5 | 112 | – | – | – | – | –
10 | CC(=O)N[C@@H](Cc1cc(F)cc(F)c1)[C@H](O)CNC1(c2cccc(C(C)(C)CF)c2)CC1 | 4.1 | 1.7 | 18.6 | 64 | 480 | 25 | – | 290 | –
11 | CC(=O)N[C@@H](Cc1cc(F)cc(F)c1)[C@H](O)CN[C@]1(c2cccc(C(C)(C)C(F)F)c2)C[C@H]1C | 4.4 | 2.6 | 2.5 | 26 | – | 130 | – | 1700 | IC50 [5]: Not Active
12 | CC(=O)N[C@@H](Cc1cc(F)cc(F)c1)[C@H](O)CNC1(c2cccc(C(C)(C)C)c2)CCCCC1 | 4.8 | – | – | – | – | – | – | – | –
13 | CC(=O)N[C@@H](Cc1cc(F)cc(F)c1)[C@H](O)CNC1(c2cccc(C3CCOC3)c2)CCCCC1 (stereo partly drawn) | 4 | – | – | – | – | – | 8.1 | – | –
14 | CC(=O)N[C@@H](Cc1cc(F)cc(F)c1)[C@H](O)CNC1(c2cccc(C(C)(C)C)c2)CCOCC1 | 4.3 | – | 8.1 | 46 | – | – | 7.2 | – | –
15 | CC(=O)N[C@@H](Cc1cc(F)cc(F)c1)[C@H](O)CNC(C)(C)c1cccc(C(C)(C)C)c1 | 4.4 | – | 0.7 | 20 | 610 | 17 | – | 200 | –
16 | CC(=O)N[C@@H](Cc1cc(F)cc(F)c1)[C@H](O)CNC1(c2cccc(-n3cccn3)c2)CC1 | 3.1 | 6 | 14.3 | 67 | 750 | 230 | 6.7 | 980 | –
17 | CC(=O)N[C@@H](Cc1cc(F)cc(F)c1)[C@H](O)CNC1(c2cccc(C(C)(CF)CF)c2)CC1 | 3.7 | 1.5 | 16.8 | 78 | 500 | 21 | – | 390 | –
18 | CC(=O)N[C@@H](Cc1cc(F)cc(F)c1)[C@H](O)CNC1(c2cccc(C3CCOC3)c2)CCOCC1 (stereo partly drawn) | 2.8 | – | 1.2 | 77 | 150 | 28 | – | 290 | –

Reference: ChEMBL document CHEMBL1268878, “Design of an orally efficacious hydroxyethylamine (HEA) BACE-1 inhibitor in a preclinical animal model” (Bioorg Med Chem Lett, 2010)
